This is an account of results in patent US9493448B2, “Cycloalkane derivatives” (Daiichi Sankyo Company, Limited, priority 2012, dated 2016).

Assay [1] addresses hNav 1.7 (Homo sapiens (Human), UniProt Q15858). The assay can be described thus: Electrophysiological evaluation, automated patch clamp IonWorks Quattro (Population Patch Clamp mode). In kind it is cell-based. The conditions noted are these: HEK293A cells stably expressing hNav 1.7/β1/β2; response to second depolarization pulse, pre-pulse potential set to V1/2; read-out: hNav1.7 IC50.

Assay [2] relates to mice and rats affected by thermal hyperalgesia. The assay can be described thus: Thermal hyperalgesia assay.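 Note: measurement times set by the study director and not disclosed.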 In kind it is in vivo. As to conditions: oral administration, constant dose, against the vehicle treatment group; latency to escape behaviors after thermal stimulation of hind paw.

Sequence of hNav 1.7 (Q15858 whole entry): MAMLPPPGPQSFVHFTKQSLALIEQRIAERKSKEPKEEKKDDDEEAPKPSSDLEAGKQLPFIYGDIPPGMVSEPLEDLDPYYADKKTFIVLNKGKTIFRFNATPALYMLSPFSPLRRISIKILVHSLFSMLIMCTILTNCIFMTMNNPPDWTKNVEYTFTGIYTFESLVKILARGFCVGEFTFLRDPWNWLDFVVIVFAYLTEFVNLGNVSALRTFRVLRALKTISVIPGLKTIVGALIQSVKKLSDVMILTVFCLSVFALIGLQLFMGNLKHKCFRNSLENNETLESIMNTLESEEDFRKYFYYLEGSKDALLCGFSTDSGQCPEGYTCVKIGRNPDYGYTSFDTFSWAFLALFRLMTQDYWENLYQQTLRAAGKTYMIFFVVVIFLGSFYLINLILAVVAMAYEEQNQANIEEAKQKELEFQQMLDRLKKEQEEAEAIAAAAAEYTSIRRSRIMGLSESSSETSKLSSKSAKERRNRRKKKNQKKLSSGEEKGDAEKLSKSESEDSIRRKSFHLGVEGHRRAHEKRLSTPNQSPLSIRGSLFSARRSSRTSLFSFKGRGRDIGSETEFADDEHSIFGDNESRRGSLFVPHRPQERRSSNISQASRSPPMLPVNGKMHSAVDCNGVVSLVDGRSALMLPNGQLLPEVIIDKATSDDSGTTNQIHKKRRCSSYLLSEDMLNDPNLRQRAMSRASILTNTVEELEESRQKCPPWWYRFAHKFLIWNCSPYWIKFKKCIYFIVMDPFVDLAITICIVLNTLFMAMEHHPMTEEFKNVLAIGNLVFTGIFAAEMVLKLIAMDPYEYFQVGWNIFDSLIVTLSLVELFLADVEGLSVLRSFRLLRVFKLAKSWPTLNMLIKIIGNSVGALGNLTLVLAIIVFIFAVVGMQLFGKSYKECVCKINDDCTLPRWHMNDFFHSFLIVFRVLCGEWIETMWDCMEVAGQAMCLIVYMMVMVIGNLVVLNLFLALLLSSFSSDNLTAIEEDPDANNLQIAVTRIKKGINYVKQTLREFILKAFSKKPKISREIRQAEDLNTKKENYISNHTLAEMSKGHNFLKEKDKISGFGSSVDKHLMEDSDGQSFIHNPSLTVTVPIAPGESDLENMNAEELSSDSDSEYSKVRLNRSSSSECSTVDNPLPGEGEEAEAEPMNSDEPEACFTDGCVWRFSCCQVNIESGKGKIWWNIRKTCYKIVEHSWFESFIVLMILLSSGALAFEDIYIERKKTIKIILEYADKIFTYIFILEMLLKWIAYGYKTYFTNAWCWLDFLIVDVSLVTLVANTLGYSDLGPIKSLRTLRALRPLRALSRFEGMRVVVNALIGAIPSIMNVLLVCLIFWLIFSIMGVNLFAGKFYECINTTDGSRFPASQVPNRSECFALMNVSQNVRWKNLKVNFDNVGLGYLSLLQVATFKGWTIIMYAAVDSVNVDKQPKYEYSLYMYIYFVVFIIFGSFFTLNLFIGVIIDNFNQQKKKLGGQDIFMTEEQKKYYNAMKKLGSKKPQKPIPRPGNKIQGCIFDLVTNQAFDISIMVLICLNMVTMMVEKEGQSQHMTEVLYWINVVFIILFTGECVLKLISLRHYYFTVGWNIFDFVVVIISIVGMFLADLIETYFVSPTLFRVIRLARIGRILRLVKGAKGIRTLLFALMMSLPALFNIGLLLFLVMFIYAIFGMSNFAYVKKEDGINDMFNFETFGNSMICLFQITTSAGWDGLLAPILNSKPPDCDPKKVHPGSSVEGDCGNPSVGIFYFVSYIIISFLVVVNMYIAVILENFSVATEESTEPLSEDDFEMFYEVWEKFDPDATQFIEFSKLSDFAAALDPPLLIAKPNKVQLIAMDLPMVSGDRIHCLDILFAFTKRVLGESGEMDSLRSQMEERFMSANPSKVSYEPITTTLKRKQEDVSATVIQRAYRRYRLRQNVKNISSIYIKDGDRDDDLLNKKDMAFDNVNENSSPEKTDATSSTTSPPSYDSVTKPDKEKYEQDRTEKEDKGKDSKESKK
Sequence of hNav 1.7 (Q07699 19-218 partner): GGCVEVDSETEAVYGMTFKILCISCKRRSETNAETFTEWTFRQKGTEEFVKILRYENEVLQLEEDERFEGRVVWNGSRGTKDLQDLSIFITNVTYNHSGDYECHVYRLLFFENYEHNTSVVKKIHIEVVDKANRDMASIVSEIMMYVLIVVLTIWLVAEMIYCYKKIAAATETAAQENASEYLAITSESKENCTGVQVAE
Sequence of hNav 1.7 (O60939 30-215 partner): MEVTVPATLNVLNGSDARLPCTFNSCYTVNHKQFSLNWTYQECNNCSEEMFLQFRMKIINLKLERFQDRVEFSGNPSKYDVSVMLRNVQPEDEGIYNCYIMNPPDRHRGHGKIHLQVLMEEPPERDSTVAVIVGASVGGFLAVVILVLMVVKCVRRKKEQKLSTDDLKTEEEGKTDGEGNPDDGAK

Consider `Nc1cc([C@H]2CCCC[C@@H]2Oc2cc(F)c(S(=O)(=O)Nc3ccncn3)cc2F)ccn1` (relative stereo) [Example 35, 4-{[(1S*,2R*)-2-(2-Aminopyridin-4-yl)cyclohexyl]oxy}-2,5-difluoro-N-(pyrimidin-4-yl)benzenesulfonamide], for which, in assay [1], the IC50 was 99 nM. Further, the “Ratio of improving pain score (%)” value in assay [2] is on record as “B (“B” when the rate was 31 to 60%)”.
In the same order, the values of `CCn1nccc1[C@H]1CCC[C@@H]1Oc1cc(F)c(S(=O)(=O)Nc2ccncn2)cc1F` (relative stereo) [Example 37, 4-{[(1S*,2R*)-2-(1-Ethyl-1H-pyrazol-5-yl)cyclopentyl]oxy}-2,5-difluoro-N-(pyrimidin-4-yl)benzenesulfonamide] are 210 nM and “C (“C” when the rate was 0 to 30%)”.
In the same order, the values of `CCn1nccc1[C@H]1CCC[C@@H]1Oc1ccc(S(=O)(=O)Nc2ccncn2)c(F)c1F` (relative stereo) [Example 38, 4-{[(1S*,2R*)-2-(1-Ethyl-1H-pyrazol-5-yl)cyclopentyl]oxy}-2,3-difluoro-N-(pyrimidin-4-yl)benzenesulfonamide] are 240 nM and “A (“A” when the rate was 61 to 100%)”.
The matching figures for `Cn1nccc1[C@H]1CCCC[C@@H]1Oc1ccc(S(=O)(=O)Nc2ccncn2)c(F)c1F` (relative stereo) [Example 40, 2,3-Difluoro-4-{[(1S*,2R*)-2-(1-methyl-1H-pyrazol-5-yl)cyclohexyl]oxy}-N-(pyrimidin-4-yl)benzenesulfonamide]: 330 nM and “A (“A” when the rate was 61 to 100%)”.
On to `CCn1nccc1[C@H]1CCCC[C@@H]1Oc1ccc(S(=O)(=O)Nc2ccncn2)c(F)c1F` (relative stereo) [Example 41, 4-{[(1S*,2R*)-2-(1-Ethyl-1H-pyrazol-5-yl)cyclohexyl]oxy}-2,3-difluoro-N-(pyrimidin-4-yl)benzenesulfonamide], for which, in assay [1], the IC50 came to 160 nM. Besides, in assay [2], the “Ratio of improving pain score (%)” value is listed as “B (“B” when the rate was 31 to 60%)”.
Consider `Cn1nccc1[C@H]1CCCCC[C@@H]1Oc1cc(F)c(S(=O)(=O)Nc2ccncn2)cc1F` (relative stereo) [Example 42, 2,5-Difluoro-4-{[(1S*,2R*)-2-(1-methyl-1H-pyrazol-5-yl)cycloheptyl]oxy}-N-(pyrimidin-4-yl)benzenesulfonamide], for which the IC50 in assay [1] was 91 nM. In addition, the “Ratio of improving pain score (%)” value in assay [2] is “C (“C” when the rate was 0 to 30%)”.
Turning to `Cn1nccc1[C@H]1CCCC[C@@H]1Oc1ccc(S(=O)(=O)Nc2ccncn2)c(F)c1` (relative stereo) [Example 44, 2-Fluoro-4-{[(1S*,2R*)-2-(1-methyl-1H-pyrazol-5-yl)cyclohexyl]oxy}-N-(pyrimidin-4-yl)benzenesulfonamide], in assay [1], the IC50 turned out to be 330 nM. Also, in assay [2], the “Ratio of improving pain score (%)” value is recorded as “C (“C” when the rate was 0 to 30%)”.
In the same order, the values of `CCn1nccc1[C@H]1CCCC[C@@H]1Oc1ccc(S(=O)(=O)Nc2ccncn2)c(F)c1` (relative stereo) [Example 45, 4-{[(1S*,2R*)-2-(1-Ethyl-1H-pyrazol-5-yl)cyclohexyl]oxy}-2-fluoro-N-(pyrimidin-4-yl)benzenesulfonamide] are 190 nM and “C (“C” when the rate was 0 to 30%)”.
For `Cn1nccc1[C@H]1CCC(F)(F)C[C@@H]1Oc1cc(F)c(S(=O)(=O)Nc2ccncn2)cc1F` (relative stereo) [Example 47, 4-{[(1S*,2R*)-5,5-Difluoro-2-(1-methyl-1H-pyrazol-5-yl)cyclohexyl]oxy}-2,5-difluoro-N-(pyrimidin-4-yl)benzenesulfonamide], the IC50 in assay [1] was 120 nM. Moreover, the “Ratio of improving pain score (%)” value in assay [2] is “A (“A” when the rate was 61 to 100%)”.
With `CCn1nccc1[C@H]1CCC[C@@H]1Oc1cc(F)c(S(=O)(=O)Nc2ccncn2)c(F)c1` (relative stereo) [Example 50, 4-{[(1S*,2R*)-2-(1-Ethyl-1H-pyrazol-5-yl)cyclopentyl]oxy}-2,6-difluoro-N-(pyrimidin-4-yl)benzenesulfonamide], the IC50 in assay [1] came out at 47 nM. In assay [2], the “Ratio of improving pain score (%)” value is on record as “B (“B” when the rate was 31 to 60%)”.
Take `Cn1nccc1[C@H]1CCCCC[C@@H]1Oc1ccc(S(=O)(=O)Nc2ccncn2)c(F)c1F` (relative stereo) [Example 51, 2,3-Difluoro-4-{[(1S*,2R*)-2-(1-methyl-1H-pyrazol-5-yl)cycloheptyl]oxy}-N-(pyrimidin-4-yl)benzenesulfonamide]: the IC50 in assay [1] was 750 nM. Further, the “Ratio of improving pain score (%)” value in assay [2] was “B (“B” when the rate was 31 to 60%)”.
Consider `Cc1cc(S(=O)(=O)Nc2ccncn2)ccc1O[C@H]1CCC[C@@H]1c1ccnn1C` (relative stereo) [Example 52, 3-Methyl-4-{[(1S*,2R*)-2-(1-methyl-1H-pyrazol-5-yl)cyclopentyl]oxy}-N-(pyrimidin-4-yl)benzenesulfonamide], for which the IC50 in assay [1] worked out at 83 nM. Besides, the “Ratio of improving pain score (%)” value in assay [2] is “B (“B” when the rate was 31 to 60%)”.
`Cc1cc(S(=O)(=O)Nc2ccncn2)ccc1O[C@H]1CCCC[C@@H]1c1ccnn1C` (relative stereo) [Example 54, 3-Methyl-4-{[(1S*,2R*)-2-(1-methyl-1H-pyrazol-5-yl)cyclohexyl]oxy}-N-(pyrimidin-4-yl)benzenesulfonamide]: the IC50 in assay [1] worked out at 39 nM. Further, in assay [2], the “Ratio of improving pain score (%)” value was “C (“C” when the rate was 0 to 30%)”.
As to `Cn1nccc1[C@H]1CCCCC[C@@H]1Oc1ccc(S(=O)(=O)Nc2ccncn2)cc1C#N` (relative stereo) [Example 55, 3-Cyano-4-{[(1S*,2R*)-2-(1-methyl-1H-pyrazol-5-yl)cycloheptyl]oxy}-N-(pyrimidin-4-yl)benzenesulfonamide], the IC50 in assay [1] amounted to 39 nM. Also, the “Ratio of improving pain score (%)” value in assay [2] was “C (“C” when the rate was 0 to 30%)”.
In the case of `Cn1nccc1[C@H]1CCCC[C@@H]1Oc1ccc(S(=O)(=O)Nc2ccncn2)cc1C#N` (relative stereo) [Example 56, 3-Cyano-4-{[(1S*,2R*)-2-(1-methyl-1H-pyrazol-5-yl)cyclohexyl]oxy}-N-(pyrimidin-4-yl)benzenesulfonamide], the IC50 in assay [1] is 250 nM. In assay [2], the “Ratio of improving pain score (%)” value is reported as “B (“B” when the rate was 31 to 60%)”.
Regarding `Cc1cc(S(=O)(=O)Nc2ccncn2)ccc1O[C@H]1CCCCC[C@@H]1c1ccnn1C` (relative stereo) [Example 57, 3-Methyl-4-{[(1S*,2R*)-2-(1-methyl-1H-pyrazol-5-yl)cycloheptyl]oxy}-N-(pyrimidin-4-yl)benzenesulfonamide], the IC50 in assay [1] came to 75 nM. Further, the “Ratio of improving pain score (%)” value in assay [2] is reported as “B (“B” when the rate was 31 to 60%)”.
For the compound `Cn1nccc1[C@H]1CCCCC[C@@H]1Oc1ccc(S(=O)(=O)Nc2ccncn2)c(F)c1` (relative stereo) [Example 58, 2-Fluoro-4-{[(1S*,2R*)-2-(1-methyl-1H-pyrazol-5-yl)cycloheptyl]oxy}-N-(pyrimidin-4-yl)benzenesulfonamide], the IC50 in assay [1] was found to be 660 nM. Besides, in assay [2], the “Ratio of improving pain score (%)” value was “B (“B” when the rate was 31 to 60%)”.
`CCn1nccc1[C@H]1CCCC[C@@H]1Oc1cc(F)c(S(=O)(=O)Nc2ccncn2)c(F)c1` (relative stereo) [Example 59, 4-{[(1S*,2R*)-2-(1-Ethyl-1H-pyrazol-5-yl)cyclohexyl]oxy}-2,6-difluoro-N-(pyrimidin-4-yl)benzenesulfonamide]: the IC50 in assay [1] amounted to 31 nM. Also, the “Ratio of improving pain score (%)” value in assay [2] was “C (“C” when the rate was 0 to 30%)”.
In the same order, the values of `Cn1nccc1[C@H]1CCCCC[C@@H]1Oc1cc(F)c(S(=O)(=O)Nc2ccncn2)cc1Cl` (relative stereo) [Example 60, 5-Chloro-2-fluoro-4-{[(1S*,2R*)-2-(1-methyl-1H-pyrazol-5-yl)cycloheptyl]oxy}-N-(pyrimidin-4-yl)benzenesulfonamide] are 37 nM and “C (“C” when the rate was 0 to 30%)”.
In the same order, the values of `Cn1nccc1[C@H]1CCC[C@@H]1Oc1cc(F)c(S(=O)(=O)Nc2ccncn2)cc1C#N` (relative stereo) [Example 62, 5-Cyano-2-fluoro-4-{[(1S*,2R*)-2-(1-methyl-1H-pyrazol-5-yl)cyclopentyl]oxy}-N-(pyrimidin-4-yl)benzenesulfonamide] are 120 nM and “B (“B” when the rate was 31 to 60%)”.
As for `Cc1c(O[C@H]2CCC[C@@H]2c2ccnn2C)ccc(S(=O)(=O)Nc2ccncn2)c1F` (relative stereo) [Example 65, 2-Fluoro-3-methyl-4-{[(1S*,2R*)-2-(1-methyl-1H-pyrazol-5-yl)cyclopentyl]oxy}-N-(pyrimidin-4-yl)benzenesulfonamide], in assay [1], the IC50 turned out to be 130 nM. For the same compound, the “Ratio of improving pain score (%)” value in assay [2] is “B (“B” when the rate was 31 to 60%)”.
The matching figures for `Cc1c(O[C@H]2CCCC[C@@H]2c2ccnn2C)ccc(S(=O)(=O)Nc2ccncn2)c1F` (relative stereo) [Example 66, 2-Fluoro-3-methyl-4-{[(1S*,2R*)-2-(1-methyl-1H-pyrazol-5-yl)cyclohexyl]oxy}-N-(pyrimidin-4-yl)benzenesulfonamide]: 17 nM and “A (“A” when the rate was 61 to 100%)”.
`Cn1nccc1[C@H]1CC(C)(C)CC[C@@H]1Oc1cc(F)c(S(=O)(=O)Nc2ccncn2)cc1F` (relative stereo) [Example 67, 4-{[(1S*,2R*)-4,4-Dimethyl-2-(1-methyl-1H-pyrazol-5-yl)cyclohexyl]oxy}-2,5-difluoro-N-(pyrimidin-4-yl)benzenesulfonamide]: the IC50 in assay [1] turned out to be 43 nM. Further, in assay [2], the “Ratio of improving pain score (%)” value was “C (“C” when the rate was 0 to 30%)”.
As for `Cc1cc(S(=O)(=O)Nc2ccncn2)c(F)cc1O[C@H]1CCCC[C@@H]1c1c[nH]nc1N` (relative stereo) [Example 68, 4-{[(1S*,2R*)-2-(3-Amino-1H-pyrazol-4-yl)cyclohexyl]oxy}-2-fluoro-5-methyl-N-(pyrimidin-4-yl)benzenesulfonamide], the IC50 in assay [1] was found to be 86 nM. In addition, the “Ratio of improving pain score (%)” value in assay [2] is “B (“B” when the rate was 31 to 60%)”.
